# Test results published in patent US20150105252A1, “SUBSTITUTED PYRAZOLES AS HERBICIDES” (E I DU PONT DE NEMOURS AND COMPANY, priority 2013, published 2015).
# Key:
# [1] = system: ducksalad; experiment: Test B flood; assay type: in vivo, Heteranthera limosa; details: 250 g ai/ha, visual rating on 0 to 100 scale (0 no effect, 100 complete control), 13 to 15 days
# Method in brief: (§1)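 Two-leaf-stage plants, pots flooded (3 cm above soil) and treated through the water, which stayed at that depth. After 13–15 days in greenhouse conditions, visual assessment versus controls: 0 is no effect, 100 complete control, dash means no result.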
# [2] = system: morningglory; experiment: Test A preemergence; assay type: in vivo, Ipomoea spp.; details: preemergence
# Method in brief: (§2)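 Greenhouse test in loam soil/sand blend; compounds formulated in non-phytotoxic solvent with surfactant, applied as preemergence directed soil spray or postemergence to plants 2–10 cm tall at one- to two-leaf stage. Injury rated visually versus untreated controls after approximately 10 days on a 0 (no effect) to 100 (complete control) scale.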
# [3] = system: sedge, umbrella; experiment: Test B flood; assay type: in vivo, Cyperus difformis; details: 250 g ai/ha, visual rating on 0 to 100 scale (0 no effect, 100 complete control), 13 to 15 days
# Method in brief: as §1
# [4] = system: foxtail, giant; experiment: Test A postemergence; assay type: in vivo, Setaria faberii
# Method in brief: as §2
# [5] = system: wheat; experiment: Test A postemergence; assay type: in vivo, Triticum aestivum
# Method in brief: as §2
# [6] = system: velvetleaf; experiment: Test A postemergence; assay type: in vivo, Abutilon theophrasti
# Method in brief: as §2
# [7] = system: velvetleaf; experiment: Test A preemergence; assay type: in vivo, Abutilon theophrasti; details: preemergence
# Method in brief: as §2
# [8] = system: foxtail, giant; experiment: Test A preemergence; assay type: in vivo, Setaria faberii; details: preemergence
# Method in brief: as §2
# [9] = system: barnyardgrass; experiment: Test B flood; assay type: in vivo, Echinochloa crus-galli; details: 250 g ai/ha, visual rating on 0 to 100 scale (0 no effect, 100 complete control), 13 to 15 days
# Method in brief: as §1
# [10] = system: rice; experiment: Test B flood; assay type: in vivo, Oryza sativa; details: 250 g ai/ha, visual rating on 0 to 100 scale (0 no effect, 100 complete control), 13 to 15 days
# Method in brief: as §1
# [11] = system: crabgrass, large; experiment: Test A postemergence; assay type: in vivo, Digitaria sanguinalis
# Method in brief: as §2
# [12] = system: corn; experiment: Test A preemergence; assay type: in vivo, Zea mays; details: preemergence
# Method in brief: as §2
# [13] = system: wheat; experiment: Test A preemergence; assay type: in vivo, Triticum aestivum; details: preemergence
# Method in brief: as §2
# [14] = system: morningglory; experiment: Test A postemergence; assay type: in vivo, Ipomoea spp.
# Method in brief: as §2
# [15] = system: barnyardgrass; experiment: Test A postemergence; assay type: in vivo, Echinochloa crus-galli
# Method in brief: as §2
# [16] = system: pigweed; experiment: Test A postemergence; assay type: in vivo, Amaranthus retroflexus
# Method in brief: as §2
# [17] = system: pigweed; experiment: Test A preemergence; assay type: in vivo, Amaranthus retroflexus; details: preemergence
# Method in brief: as §2
# [18] = system: corn; experiment: Test A postemergence; assay type: in vivo, Zea mays
# Method in brief: as §2
# [19] = system: barnyardgrass; experiment: Test A preemergence; assay type: in vivo, Echinochloa crus-galli; details: preemergence
# Method in brief: as §2
# [20] = system: crabgrass, large; experiment: Test A preemergence; assay type: in vivo, Digitaria sanguinalis; details: preemergence
# Method in brief: as §2
# [21] = 125 g ai/ha, visual injury, 0 to 100 scale, approx. 10 days
# [22] = 500 g ai/ha, visual injury after approx. 10 days, 0 to 100 scale (0 no effect, 100 complete control)
# [23] = Postemergence, 500 g ai/ha, visual rating after approx. 10 days, 0 to 100 scale (0 no effect, 100 complete control)
# [24] = postemergence, 125 g ai/ha, about 10 days, visual rating on 0 to 100 scale (0 no effect, 100 complete control)
Compound,"Plant response rating, Ducksalad [1]","Morningglory plant response rating [2, 21]","Morningglory plant response rating [2, 22]","Plant response rating, Sedge, Umbrella [3]","Foxtail, Giant plant response rating [4, 23]","Foxtail, Giant plant response rating [4, 24]","Wheat plant response rating [5, 23]","Wheat plant response rating [5, 24]","Velvetleaf plant response rating [6, 23]","Velvetleaf plant response rating [6, 24]","Velvetleaf plant response rating [7, 21]","Velvetleaf plant response rating [7, 22]","Foxtail, Giant plant response rating [8, 21]","Foxtail, Giant plant response rating [8, 22]","Plant response rating, Barnyardgrass [9]","Plant response rating, Rice [10]","Crabgrass, Large plant response rating [11, 23]","Crabgrass, Large plant response rating [11, 24]","Corn plant response rating [12, 21]","Corn plant response rating [12, 22]",other results
CCCc1cc(C(=O)NC2CC2)nn1Oc1ccnc(C(F)(F)F)c1 [Compound 93],50,0,50,50,80,20,40,20,20,0,0,0,30,100,0,0,80,20,0,80,"Wheat plant response rating [13, 21]: 0; Wheat plant response rating [13, 22]: 30; Morningglory plant response rating [14, 23]: 60; Morningglory plant response rating [14, 24]: 0; Barnyardgrass plant response rating ([15]; Postemergence, 125 g ai/ha, 0 to 100 scale, 0 no effect, 100 complete control): 0; Barnyardgrass plant response rating [15, 23]: 40; Pigweed plant response rating [16, 23]: 60; Pigweed plant response rating [16, 24]: 20; Pigweed plant response rating [17, 21]: 30; Pigweed plant response rating [17, 22]: 100; Corn plant response rating [18, 23]: 90; Corn plant response rating [18, 24]: 0; Barnyardgrass plant response rating [19, 21]: 0; Barnyardgrass plant response rating [19, 22]: 90; Crabgrass, Large plant response rating [20, 21]: 70; Crabgrass, Large plant response rating [20, 22]: 100"
CCc1cc(C(=O)NOC)nn1Cc1ccnc(C(F)(F)F)c1 [Compound 99],50,60,100,75,100,60,70,20,90,20,10,80,90,100,0,0,100,60,50,90,"Wheat plant response rating [13, 21]: 0; Wheat plant response rating [13, 22]: 60; Morningglory plant response rating [14, 23]: 100; Morningglory plant response rating [14, 24]: 50; Barnyardgrass plant response rating [15, 23]: 90; Barnyardgrass plant response rating [15, 24]: 20; Pigweed plant response rating [16, 23]: 100; Pigweed plant response rating [16, 24]: 70; Pigweed plant response rating [17, 21]: 90; Pigweed plant response rating [17, 22]: 100; Corn plant response rating [18, 23]: 90; Corn plant response rating [18, 24]: 50; Barnyardgrass plant response rating [19, 21]: 40; Barnyardgrass plant response rating [19, 22]: 100; Crabgrass, Large plant response rating [20, 21]: 100; Crabgrass, Large plant response rating [20, 22]: 100"
CCc1cc(-c2ccc(F)cc2)nn1Cc1ccnc(C(F)(F)F)c1 [Compound 111],0,0,30,90,100,40,30,10,90,40,10,30,90,100,15,20,100,30,0,0,"Wheat plant response rating [13, 21]: 0; Wheat plant response rating [13, 22]: 0; Morningglory plant response rating [14, 23]: 100; Morningglory plant response rating [14, 24]: 90; Barnyardgrass plant response rating [15, 23]: 80; Barnyardgrass plant response rating [15, 24]: 20; Pigweed plant response rating [16, 23]: 100; Pigweed plant response rating [16, 24]: 80; Pigweed plant response rating [17, 21]: 20; Pigweed plant response rating [17, 22]: 100; Corn plant response rating [18, 23]: 50; Corn plant response rating [18, 24]: 10; Barnyardgrass plant response rating [19, 21]: 10; Barnyardgrass plant response rating [19, 22]: 90; Crabgrass, Large plant response rating [20, 21]: 90; Crabgrass, Large plant response rating [20, 22]: 100"
CCc1cc(-c2ccc(Br)cc2)nn1Cc1ccnc(C(F)(F)F)c1 [Compound 112],0,0,0,0,20,10,40,10,40,20,0,10,70,80,20,20,20,10,0,0,"Wheat plant response rating [13, 21]: 0; Wheat plant response rating [13, 22]: 0; Morningglory plant response rating [14, 23]: 70; Morningglory plant response rating [14, 24]: 40; Barnyardgrass plant response rating [15, 23]: 20; Barnyardgrass plant response rating [15, 24]: 0; Pigweed plant response rating [16, 23]: 90; Pigweed plant response rating [16, 24]: 30; Pigweed plant response rating [17, 21]: 0; Pigweed plant response rating [17, 22]: 50; Corn plant response rating [18, 23]: 30; Corn plant response rating [18, 24]: 0; Barnyardgrass plant response rating [19, 21]: 0; Barnyardgrass plant response rating [19, 22]: 10; Crabgrass, Large plant response rating [20, 21]: 70; Crabgrass, Large plant response rating [20, 22]: 90"
CCc1cc(-c2ccc(C(F)(F)F)cc2)nn1Cc1nc(C(F)(F)F)nn1C [Compound 115],0,0,40,80,80,30,40,0,100,60,20,20,90,90,0,20,90,50,0,20,"Wheat plant response rating [13, 21]: 0; Wheat plant response rating [13, 22]: 20; Morningglory plant response rating [14, 23]: 80; Morningglory plant response rating [14, 24]: 30; Barnyardgrass plant response rating [15, 23]: 60; Barnyardgrass plant response rating [15, 24]: 30; Pigweed plant response rating [16, 23]: 100; Pigweed plant response rating [16, 24]: 90; Pigweed plant response rating [17, 21]: 90; Pigweed plant response rating [17, 22]: 100; Corn plant response rating [18, 23]: 40; Corn plant response rating [18, 24]: 20; Barnyardgrass plant response rating [19, 21]: 20; Barnyardgrass plant response rating [19, 22]: 80; Crabgrass, Large plant response rating [20, 21]: 90; Crabgrass, Large plant response rating [20, 22]: 100"
